The subject of assay [1] is S. pyrogenes (UC 152). Kind of assay: Antibiotic potency: CD50 in mice challenged with a lethal dose of microorganism. The format is in vivo. The conditions noted are these: oral intubation at 0, 24, 48 and 72 hours after interperitoneal challenge with S. pyrogenes (UC 152), dose curing 50% of mice, mean (95% confidence limits); for ED50: Mus musculus. Here is the method: (§1) The antibiotic potency of the salts of the present invention is illustrated by the data below providing CD50's of the various antibiotic agents, dissolved in inert vehicle, when administered to mice by oral intubation at 0, 24, 48, and 72 hours after challenge of the mice with an interperitoneally administered dose of microorganism which, in the absence of antibiotic agent, would be lethal. The CD50 for an agent is the dose at which 50% of the mice are cured under such a dosing schedule. In the data below the first number in each entry is the mean value and the numbers in parenthesis are the 95% confidence limits: […]

Assay [2] deals with S. aureus. The assay is described as above. The format is in vivo. Particulars: oral intubation at 0, 24, 48 and 72 hours after interperitoneal challenge with S. aureus, dose curing 50% of mice, mean (95% confidence limits). Here is the method: as §1

Structures are written as SMILES. Counter-ions that a name gives are not always drawn.

As a reminder, the ED50 is the midpoint of the dose-response relation. A high value points to weaker potency.

Regarding `CC1(C)S[C@@H]2[C@H](NC(=O)[C@H](N)c3ccccc3)C(=O)N2[C@H]1C(=O)O` [ampicillin, 6-[D-(2-amino-2-phenylacetamido)] penicillanicacid], the ED50 was determined as 0.49 µmol/kg in assay [1] and 2 µmol/kg in assay [2] (Staphylococcus aureus, po).

Consider `CCOC(=O)OC(C)OC(=O)[C@@H]1N2C(=O)[C@@H](NC(=O)[C@H](N)c3ccccc3)[C@H]2SC1(C)C` (stereo partly drawn) [bacampicillin 1-naphthalene-sulfonate, Bacampicillin 1-Naphthalenesulfonate], for which the CD50 in assay [1] is 0.15 (0.10-0.20) micromoles/kg; in assay [2], 0.74 (0.43-1.3) micromoles/kg.

`CCOC(=O)OC(C)OC(=O)[C@@H]1N2C(=O)[C@@H](NC(=O)[C@H](N)c3ccccc3)[C@H]2SC1(C)C` (stereo partly drawn) [bacampicillin-HCl, bacampicillin hydrochloride] registered an ED50 in assay [1] of 0.19 µmol/kg. Also, the CD50 in assay [2] (hydrochloride) is 1.5 (1.0-2.3) micromoles/kg.

The values above are taken from patent EP0089767A1, “Acid addition salts of a penicillanic acid derivative” (UPJOHN LIMITED, priority 1982, dated 1983).
